According to ChEMBL document CHEMBL3638847, “Substituted piperidine compounds and their use as orexin receptor modulators” (2015):

Columns and labels:
[1] = target: T1, Orexin/Hypocretin receptor type 1 (Homo sapiens, UniProt O43613); experiment: (§1) Radioligand Binding Assay: Human Embryonic Kidney 293 cells (HEK293) stably expressing rat orexin 1 receptor(Genebank accession number NM_001525) or […] (CHO) stably expressing human orexin 1 receptor (Genebank accession number […]) were grown to confluency in DMEM (Hyclone, cat # SH30022), 10% FBS, IX Pen/Strep, IX sodium pyruvate, 10 mM HEPES, 600 ug/mL G418 and DMEM/F12 (Gibco, Cat #1 1039), 10%FBS, IX Pen/Strep, 600 ug/mL G418 media, respectively on 150 cm2 tissue culture plates, washed with 5 mM EDTA in PBS (HyClone Dulbecco's Phoshpate Buffered Saline IX with Calcium and Magnesium, Cat # SH30264.01, hereafter referred to simply as PBS) and scraped into 50 ml tubes. After centrifugation (2K xG, 5 min at 4 C), the supernatant was aspirated and the pellets frozen and stored at -80C. Cells were resuspended in PBS in the presence of 1 tablet of protease inhibitor cocktail (Roche, Cat. #1 1836145001) per 50 mL. Each cell pellet from a 15 cm plate was resuspended in 10 mL.; assay type: cell-based
T1 sequence (O43613 whole entry): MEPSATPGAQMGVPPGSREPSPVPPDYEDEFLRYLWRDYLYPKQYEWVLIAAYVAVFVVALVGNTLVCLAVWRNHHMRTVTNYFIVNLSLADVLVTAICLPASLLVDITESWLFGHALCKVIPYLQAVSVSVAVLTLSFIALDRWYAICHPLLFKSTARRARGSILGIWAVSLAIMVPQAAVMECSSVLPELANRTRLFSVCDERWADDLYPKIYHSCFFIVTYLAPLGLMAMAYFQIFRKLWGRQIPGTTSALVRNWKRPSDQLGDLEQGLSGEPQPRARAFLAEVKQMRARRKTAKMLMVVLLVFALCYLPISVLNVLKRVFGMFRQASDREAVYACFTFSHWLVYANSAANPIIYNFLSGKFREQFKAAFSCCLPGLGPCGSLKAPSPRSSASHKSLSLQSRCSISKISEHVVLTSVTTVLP

[2] = target: T2, Orexin/Hypocretin receptor type 1 (Rattus norvegicus, UniProt P56718); experiment: as §1; assay type: cell-based
T2 sequence (P56718 whole entry): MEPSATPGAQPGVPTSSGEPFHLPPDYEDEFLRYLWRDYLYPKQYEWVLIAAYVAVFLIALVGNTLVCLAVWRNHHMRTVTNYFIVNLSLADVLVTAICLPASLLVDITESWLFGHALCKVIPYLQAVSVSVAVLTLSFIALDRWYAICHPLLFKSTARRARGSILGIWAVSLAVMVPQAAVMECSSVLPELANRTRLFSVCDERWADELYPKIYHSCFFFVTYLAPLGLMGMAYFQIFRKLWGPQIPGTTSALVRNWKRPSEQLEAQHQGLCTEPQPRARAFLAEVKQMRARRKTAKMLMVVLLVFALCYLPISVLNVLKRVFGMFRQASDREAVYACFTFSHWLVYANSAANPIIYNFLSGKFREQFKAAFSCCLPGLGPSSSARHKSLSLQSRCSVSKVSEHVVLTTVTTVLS

[3] = target: T3, Orexin receptor type 2 (Homo sapiens, UniProt O43614); experiment: Radioligand Binding Assay: HEK293 stably expressing human orexin 2 receptor (Genebank accession numberNM_001526) were grown to confluency in DMEM (Hyclone, cat # SH30022) , 10%FBS, IX Pen/Strep, IX NaPyruvate, 10 mM HEPES, 600 ug/ml G418 media on 150 cm2 tissue culture plates, washed with 5 mM EDTA in PBS (HyClone Dulbecco's Phoshpate Buffered Saline IX with Calcium and Magnesium, Cat # SH30264.01, hereafter referred to simply as PBS) and scraped into 50 ml tubes. After centrifugation (2K xG, 5 min at 4°C), the supernatant was aspirated and the pellets frozen and stored at -80°C. Cells were resuspended in PBS in the presence of 1 tablet of protease inhibitor cocktail (Roche, Cat. #11836145001) per 50 mL. Each cell pellet from a 15 cm plate was resuspended in 10 mL, stored on ice, and homogenized for 45 sec just prior to addition to the reactions. Competition binding experiments in 96 well polypropylene plates were performed using [3H]-EMPA (Moraveck Corporation, specific activity = 29.6 Ci/mmol).
T3 sequence (O43614 whole entry): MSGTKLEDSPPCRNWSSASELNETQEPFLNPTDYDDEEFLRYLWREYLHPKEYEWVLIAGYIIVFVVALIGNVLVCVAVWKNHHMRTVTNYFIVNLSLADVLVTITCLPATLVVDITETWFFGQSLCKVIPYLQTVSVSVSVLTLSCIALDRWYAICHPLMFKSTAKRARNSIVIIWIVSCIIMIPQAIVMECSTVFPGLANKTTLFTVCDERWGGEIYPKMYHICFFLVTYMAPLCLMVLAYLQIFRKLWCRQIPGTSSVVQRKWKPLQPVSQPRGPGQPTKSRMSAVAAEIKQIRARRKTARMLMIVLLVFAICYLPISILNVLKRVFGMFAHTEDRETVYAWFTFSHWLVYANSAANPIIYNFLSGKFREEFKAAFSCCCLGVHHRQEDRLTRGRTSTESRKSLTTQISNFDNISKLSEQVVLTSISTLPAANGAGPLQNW

Ki [1]: 26 nM
Ki [2]: 19 nM
Ki [3]: 91 nM
Structure (SMILES): Cc1cnc(C(=O)N2CCC[C@@H](Nc3ccc(C(F)(F)F)cn3)[C@@H]2C)c(-c2ncccn2)c1
